Experimental data taken from article PMC10038264, “A new family of glutamate-gated chloride channels in parasitic sea louse Caligus rogercresseyi: A subunit refractory to activation by ivermectin is dominant in heteromeric assemblies” (PLOS Pathogens, 2023).
Like-named read-outs stand apart in the source and are kept apart here.

What was measured:
[1] = system: CrGluCl-B; experiment: Two-electrode voltage-clamp of Xenopus oocytes expressing CrGluCl-B; format: cell-based, Caligus rogercresseyi; conditions: CrGluCl-B
Description: (§1) Adult female Xenopus laevis frogs were anaesthetized by immersion in a1g/L solution tricaine (Ethyl 3-aminobenzoate methanesulfonate, Sigma) buffered to pH 7 with NaHCO3. Surgery was performed 30–40 min later, once the frog was completely anaesthetized judging by loss of reflexes. Ovarian lobes were removed through 1 cm abdominal incision and then kept at 16°C in Barth’s modified solution containing (in mM): 88 NaCl, 1 KCl, 0.4 CaCl2, 0.3 Ca (NO3)2, 0.8 MgSO4, 2.4 NaHCO3, 5 Hepes, 2.5 sodium pyruvate, 100 μg/ml gentamicin sulfate, 100 U/ml penicillin, 100 μg/ml streptomycin, 250 μg/ml amphotericin B, 0.22μm filtered and adjusted to pH 7.5 with Tris-Base. Osmolarity was brought to 220 mOsm with saccharose. The oocytes were manually defolliculated on the same day of extraction and the following day 20 ng cRNA in nuclease-free water was injected into stage V-VI oocytes using a FemtoJet microinjector (Eppendorf). Finally, the injected oocytes were stored in 96 well plates containing Barth’s modified solution and kept at 16°C until experiment day.
(§2) Current measurements at controlled membrane potentials (voltage-clamp experiments) were performed using two intracellular microelectrodes in defolliculated Xenopus oocytes previously microinjected with 20 ng of cRNA. Voltage-clamp recording was performed at room temperature using a TURBO TEC-10CX amplifier (npi electronic GmbH, Tamm, Germany) and PClamp 10.6 software (Axon Instruments, USA), 1 to 4 days after oocyte injection. The oocytes were recorded in a chamber (Model RC-1Z, Warner Instrumenst, USA) under continuous superfusion. […] Reference was an Ag-AgCl electrode connected to the bath via a 3 M KCl in 3% agar bridge. Currents were recorded continuously during the experiments without interruptions for solution changes. Oocytes were held at -30 mV and a voltage protocol consisting of a voltage drop to -100 mV for 25ms followed by a 360 ms ramp from -100 mV to 60mV applied with a period of 565 ms was continuously given. The signal filtered at 1 kHz was acquired with a Digidata 1440A Analog-to-Digital Converter and analyzed with Axon pClamp 10.6 software. The solution that bathed the oocytes during the electrophysiological recordings had the following composition (mM): 115 NaCl, 2 KCl, 1.8 CaCl2, 1 MgCl2, 10 HEPES pH 7.5 obtained with NaOH. For the low chloride solution, all the NaCl was replaced with the gluconate salt of Na. This decreases chloride concentration from 122.6 to 7.6 mM while increasing that of gluconate from 0 to 115 mM. The stock solutions of the drugs in dimethyl sulfoxide (DMSO) were: 10 mM emamectin, 10 mM ivermectin, 100 mM picrotoxin. These were diluted in bath solution to obtain final concentrations.
(§3) The currents were normalized according to the extrapolated maximum current delivered by the Hill adjustment. In this way, the concentration that generates 50% of the maximum effect (EC50) and the Hill coefficient (nH) for each situation were obtained.

[2] = biological target: T1, CrGluCl-A (Caligus rogercresseyi, UniProt A0A1W6LZ70); conditions: cited from earlier work
T1 sequence (A0A1W6LZ70 entry or part of it): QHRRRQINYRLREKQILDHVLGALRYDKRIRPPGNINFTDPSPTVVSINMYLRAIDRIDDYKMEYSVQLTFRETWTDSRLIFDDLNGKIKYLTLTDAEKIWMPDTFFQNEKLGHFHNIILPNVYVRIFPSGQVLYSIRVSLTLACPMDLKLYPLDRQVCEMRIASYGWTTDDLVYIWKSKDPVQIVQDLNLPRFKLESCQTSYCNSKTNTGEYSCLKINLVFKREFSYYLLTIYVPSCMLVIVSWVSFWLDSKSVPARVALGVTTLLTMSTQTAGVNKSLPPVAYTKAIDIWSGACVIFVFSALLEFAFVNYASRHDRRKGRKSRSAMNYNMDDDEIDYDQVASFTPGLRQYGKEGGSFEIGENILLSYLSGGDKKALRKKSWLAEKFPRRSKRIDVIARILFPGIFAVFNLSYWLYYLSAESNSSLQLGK

[3] = biological target: T1, CrGluCl-A; experiment: Two-electrode voltage-clamp of Xenopus oocytes expressing CrGluCl-A; format: cell-based; conditions: 100 μM PTX, CrGluCl-A
Description: as §1
Current measurements at controlled membrane potentials (voltage-clamp experiments) were performed using two intracellular microelectrodes in defolliculated Xenopus oocytes previously microinjected with 20 ng of cRNA. Voltage-clamp recording was performed at room temperature using a TURBO TEC-10CX amplifier (npi electronic GmbH, Tamm, Germany) and PClamp 10.6 software (Axon Instruments, USA), 1 to 4 days after oocyte injection. The oocytes were recorded in a chamber (Model RC-1Z, Warner Instrumenst, USA) under continuous superfusion. […] Reference was an Ag-AgCl electrode connected to the bath via a 3 M KCl in 3% agar bridge. Currents were recorded continuously during the experiments without interruptions for solution changes. […] The signal filtered at 1 kHz was acquired with a Digidata 1440A Analog-to-Digital Converter and analyzed with Axon pClamp 10.6 software. […]

[4] = system: CrGluCl-C; format: cell-based, Caligus rogercresseyi
Description: as §1, §2, §3

[5] = system: CrGluCl-D; format: cell-based, Caligus rogercresseyi; conditions: CrGluCl-D, read-out: IC50 PTX inhibition of spontaneous current
Description: as §1, §2, §3

## emamectin
[1]; S3 Fig
  antagonism of glutamate response: antagonistic effect
[2]; read-out: EC50 Ivermectin / avermectin irreversible activation
  EC50: ~0.2 µM

## picrotoxin [PTX]
[3]
  inhibition by PTX: 78 ± 2%
[1]; 100 μM PTX, 1 mM glutamate
  inhibition by PTX of glutamate-elicited current: 76 ± 9%
[4]; 100 μM PTX, CrGluCl-C
  inhibition by PTX: 23 ± 10%
[4]; CrGluCl-C current elicited by 1 μM ivermectin
  nH (PTX inhibition): -1.2±0.22
[4]; CrGluCl-C current elicited by 1 μM ivermectin, read-out: IC50 PTX inhibition of ivermectin-induced current
  IC50: 275 ± 96 µM
[5]; after 1 μM ivermectin (~2 min)
  IC50: 221 ± 100 µM
[5]; before ivermectin treatment
  IC50: 16 ± 8.8 µM
[2]
  IC50: 3.2 µM
